Results taken from publication PMC6540747 (The AAPS journal, 2017).

Columns and labels:
[1] = LiverChip technology; cited from earlier work
liver MPS cells = test: Liver MPS intracellular accumulation; type: in vitro ADME, human; conditions: 72h after dosing; Gut / Liver and Liver only arms
[2] = fixed model parameter, same value in all arms; cited from earlier work
[3] = test system: gut MPS and liver MPS on-platform; test: Drug and metabolite concentration-time profiles on the multi-MPS platform; type: in vitro ADME, human; conditions: Gut only arm
[4] = Intrinsic metabolic clearance of the liver MPS on the multi-MPS platform; type: in vitro ADME, human; conditions: human
[5] = test system: liver MPS (human primary cryopreserved hepatocytes and Kupffer cells); test: as above; type: in vitro ADME; conditions: posterior mean (SD)
human hepacyte cultures = conditions: human hepatocyte cultures; cited from earlier work

Row | SMILES | non-specific binding to PSF [1] | intracellular accumulation in liver MPS (Kp, cells vs liver compartment medium) (liver MPS cells) | fum (DCF fraction unbound in circulating common medium) [2] | time at which concentration-time profiles reach a plateau ([3]; after the dose) | hepatocyte CLint at 40 μM [4] | CLintl (intrinsic metabolic DCF clearance of the liver MPS) ([5]; Gut / Liver arm, 40 μM DCF to gut apical side) | CLintl (intrinsic metabolic DCF clearance of the liver MPS) ([5]; Liver only arm, 40 μM DCF to mixing chamber) | Clintl (human hepacyte cultures) | 4-OH-DCF levels (mixing chamber concentration) ([3]; after 40 μM DCF dose)
1 | O=C(O)Cc1ccccc1Nc1c(Cl)cccc1Cl [DCF, diclofenac] | absence of non-specific binding | substantial | 0.13 | approximately 24 hours | 17 µL/min/1e6 cells | 10.18 (0.46) μL/min | 8.99 (0.20) μL/min | 17.8 μL/min/10^6 cells | –
2 | O=C(O)Cc1ccccc1Nc1c(Cl)cc(O)cc1Cl [4-OH-DCF, 4-hydroxy-diclofenac] | – | substantial | – | – | – | – | – | – | < 0.05 µM
